Measurements taken from ChEMBL document CHEMBL1268958, “Synthesis and antihyperlipidemic activity of novel coumarin bisindole derivatives” (2010).

How the values were obtained:
Type in all cases: functional, Mesocricetus auratus
[1] = test system: Syrian golden hamster; assay: Antihyperlipidemic activity against high fat diet fed gloden syrian hamster assessed as change in triglyceride level at 10 mg/kg, po for 7 days
[2] = test system: Syrian golden hamster; assay: Antihyperlipidemic activity against high fat diet fed gloden syrian hamster assessed as change in total cholesterol level at 10 mg/kg, po for 7 days
[3] = test system: Syrian golden hamster; assay: Antihyperlipidemic activity against high fat diet fed gloden syrian hamster assessed as change in HDL level at 10 mg/kg, po for 7 days
[4] = test system: Syrian golden hamster; assay: Antihyperlipidemic activity against high fat diet fed gloden syrian hamster assessed as change in HDL to total cholesterol ratio at 10 mg/kg, po for 7 days
[5] = test system: Syrian golden hamster; assay: Antihyperlipidemic activity against high fat diet fed gloden syrian hamster assessed as change in triglyceride level at 25 mg/kg, po for 7 days
[6] = test system: Syrian golden hamster; assay: Antihyperlipidemic activity against high fat diet fed gloden syrian hamster assessed as change in total cholesterol level at 25 mg/kg, po for 7 days
[7] = test system: Syrian golden hamster; assay: Antihyperlipidemic activity against high fat diet fed gloden syrian hamster assessed as change in HDL level at 25 mg/kg, po for 7 days
[8] = test system: Syrian golden hamster; assay: Antihyperlipidemic activity against high fat diet fed gloden syrian hamster assessed as change in HDL to total cholesterol ratio at 25 mg/kg, po for 7 days

| SMILES | Activity [1] | Activity [2] | Activity [3] | Activity [4] | Activity [5] | Activity [6] | Activity [7] | Activity [8] |
| --- | --- | --- | --- | --- | --- | --- | --- | --- |
| COC(=O)c1cc2cc(C(c3c(C)n(C)c4ccccc34)c3c(C)n(C)c4ccccc34)c3ccccc3c2oc1=O | -29% | -4% | -3% | 2% | – | – | – | – |
| CCOC(=O)c1cc2cc(C(c3cn(C)c4ccccc34)c3cn(C)c4ccccc34)c3ccccc3c2oc1=O | -33% | 3% | 22% | 18% | – | – | – | – |
| CCOC(=O)c1cc2cc(C(c3c(C)[nH]c4ccccc34)c3c(C)[nH]c4ccccc34)c3ccccc3c2oc1=O | -35% | -7% | 14% | 24% | – | – | – | – |
| CCOC(=O)c1cc2cc(C(c3c(C)n(C)c4ccccc34)c3c(C)n(C)c4ccccc34)c3ccccc3c2oc1=O | -45% | -38% | -31% | 11% | – | – | – | – |
| CCOC(=O)c1cc2cc(C(c3c(C)n(C)c4ccccc34)c3c(C)n(C)c4ccccc34)cc(C(C)CC)c2oc1=O (stereo unspecified) | -57% | -43% | -20% | 39% | – | – | – | – |
| COC(=O)c1cc2cc(C(c3c[nH]c4ccccc34)c3c[nH]c4ccccc34)c3ccccc3c2oc1=O | -50% | -12% | 13% | 30% | – | – | – | – |
| COC(=O)c1cc2cc(C(c3cn(C)c4ccccc34)c3cn(C)c4ccccc34)c3ccccc3c2oc1=O | -35% | 6% | -17% | 12% | – | – | – | – |
| COC(=O)c1cc2cc(C(c3c(C)[nH]c4ccccc34)c3c(C)[nH]c4ccccc34)c3ccccc3c2oc1=O | -33% | -17% | 1% | 24% | – | – | – | – |
| CCOC(=O)c1cc2cc(C(c3c[nH]c4ccccc34)c3c[nH]c4ccccc34)c3ccccc3c2oc1=O | -55% | -20% | 14% | 42% | – | – | – | – |
| CCOC(=O)c1cc2cc(C(c3c[nH]c4ccccc34)c3c[nH]c4ccccc34)cc(C(C)CC)c2oc1=O (stereo unspecified) | -10% | 28% | 11% | -14% | – | – | – | – |
| CCOC(=O)c1cc2cc(C(c3cn(C)c4ccccc34)c3cn(C)c4ccccc34)cc(C(C)CC)c2oc1=O (stereo unspecified) | -43% | -36% | -24% | 18% | – | – | – | – |
| CCOC(=O)c1cc2cc(C(c3c(C)[nH]c4ccccc34)c3c(C)[nH]c4ccccc34)cc(C(C)CC)c2oc1=O (stereo unspecified) | -39% | -21% | -13% | 9% | – | – | – | – |
| CC(C)c1c(C(=O)Nc2ccccc2)c(-c2ccccc2)c(-c2ccc(F)cc2)n1CC[C@@H](O)C[C@@H](O)CC(=O)O [ATORVASTATIN] | -63% | -14% | 15% | 35% | – | – | – | – |
| CC[C@H](C)C(=O)O[C@H]1C[C@@H](C)C=C2C=C[C@H](C)[C@H](CC[C@@H]3C[C@@H](O)CC(=O)O3)[C@H]21 [LOVASTATIN] | – | – | – | – | -29% | -9% | 3% | 12% |
